Laboratory results: patent publication US7138361B2, “Herbicidal heterocycles” (E. I. du Pont de Nemours and Company, priority 2000, dated 2006)

Columns and labels:
Type in all cases: in vivo
kochia (Kochia scoparia) = assay: Test C preemergence
How it was run: (§1)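 Pre- and postemergence treatments used a non-phytotoxic solvent/surfactant formulation; post-treated plants measured 2 to 18 cm. Greenhouse hold 12–14 d; % control estimated visually relative to controls.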

[1] = test system: goosegrass (Eleusine indica); assay: Test C preemergence
How it was run: as §1

[2] = test system: johnsongrass (Sorghum halepense); assay: Test C preemergence
How it was run: as §1

[3] = test system: woolly cupgrass (Eriochloa villosa); assay: Test C preemergence
How it was run: as §1

[4] = test system: bermudagrass (Cynodon dactylon); assay: Test C preemergence
How it was run: as §1

[5] = test system: cocklebur (Xanthium strumarium); assay: Test C preemergence
How it was run: as §1

Nightshade = assay: Test C preemergence
[6] = test system: Surinam grass (Brachiaria decumbens); assay: Test C preemergence
How it was run: as §1

[7] = test system: yellow nutsedge (Cyperus esculentus); assay: Test C preemergence
How it was run: as §1

Sunflower [8] = assay: Test C preemergence; settings: Rate 125 g/ha; scale 0 to 100, 0 no effect, 100 complete control
[9] = test system: pigweed (Amaranthus retroflexus); assay: Test C preemergence
How it was run: as §1

[10] = test system: morningglory (Ipomoea hederacea); assay: Test C preemergence
How it was run: as §1

[11] = test system: velvetleaf (Abutilon theophrasti); assay: Test C preemergence
How it was run: as §1

corn (Zea mays) = assay: Test C preemergence
How it was run: as §1

soybean (Glycine max) = assay: Test C preemergence
How it was run: as §1

[12] = test system: lambsquarters (Chenopodium album); assay: Test C preemergence
How it was run: as §1

[13] = test system: crabgrass (Digitaria sanguinalis); assay: Test C preemergence
How it was run: as §1

[14] = test system: giant foxtail (Setaria faberii); assay: Test C preemergence
How it was run: as §1

[15] = test system: smallflower flatsedge (Cyperus difformis); assay: Test C flooded paddy test; settings: for Flatsedge plant response rating: Flooded Paddy, scale 0 to 100, 0 no effect, 100 complete control; for Plant response rating, Flatsedge: flooded paddy test, scale 0 to 100 (0 no effect, 100 complete control)
How it was run: (§2)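 Each species was cultivated to 2 leaves in flooded paddy pots, then treated. After a greenhouse period of 12–14 days, the plants were scored visually relative to controls from 0 (no effect) to 100 (complete control).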

[16] = test system: barnyardgrass (Echinochloa crus-galli); assay: Test C flooded paddy test; settings: for Barnyardgrass plant response rating: Flooded Paddy, scale 0 to 100, 0 no effect, 100 complete control; for Plant response rating, Barnyardgrass: flooded paddy test, scale 0 to 100 (0 no effect, 100 complete control)
How it was run: as §2

[17] = test system: duck salad (Heteranthera limosa); assay: Test C flooded paddy test; settings: for Ducksalad plant response rating: Flooded Paddy, scale 0 to 100, 0 no effect, 100 complete control; for Plant response rating, Ducksalad: flooded paddy test, scale 0 to 100 (0 no effect, 100 complete control)
How it was run: as §2

Sunflower [18] = assay: Test C preemergence; settings: Rate 500 g/ha, visual evaluation after 12 to 14 days
[19] = Rate 125 g/ha, scale 0 to 100, 0 no effect, 100 complete control
[20] = preemergence, Rate 62 g/ha, scale 0 to 100
[21] = preemergence, Rate 500 g/ha, visual evaluation after 12 to 14 days
[22] = preemergence, Rate 250 g/ha, scale 0 to 100, 0 no effect, 100 complete control

CC(C)(C)c1ccn(C2CCN(c3cccc(I)c3)C2=O)n1 (stereo not drawn) [Compound 88]
Plant response rating, Kochia (kochia (Kochia scoparia); [19]): 90
Plant response rating, Kochia (kochia (Kochia scoparia); [20]): 70
Plant response rating (0 to 100), Kochia (kochia (Kochia scoparia); [21]): 100
Plant response rating, Kochia (kochia (Kochia scoparia); [22]): 100
Plant response rating, Goosegrass [1, 19]: 100
Plant response rating, Goosegrass [1, 20]: 100
Plant response rating (0 to 100), Goosegrass [1, 21]: 100
Plant response rating, Goosegrass [1, 22]: 100
Plant response rating, Johnsongrass [2, 19]: 10
Plant response rating, Johnsongrass [2, 20]: 10
Plant response rating (0 to 100), Johnsongrass [2, 21]: 100
Plant response rating, Johnsongrass [2, 22]: 40
Plant response rating, Cupgrass, Woolly [3, 19]: 90
Plant response rating, Cupgrass, Woolly [3, 20]: 60
Plant response rating (0 to 100), Cupgrass, Woolly [3, 21]: 100
Plant response rating, Cupgrass, Woolly [3, 22]: 100
Plant response rating, Bermudagrass [4, 19]: 100
Plant response rating, Bermudagrass [4, 20]: 100
Plant response rating (0 to 100 where 0 is no effect and 100 is complete control), Bermudagrass [4, 21]: 100
Plant response rating, Bermudagrass [4, 22]: 100
Plant response rating, Cocklebur [5, 19]: 0
Plant response rating, Cocklebur [5, 20]: 0
Plant response rating (0 to 100), Cocklebur [5, 21]: 20
Plant response rating, Cocklebur [5, 22]: 20
Plant response rating, Nightshade (Nightshade; Rate 62 g/ha, scale 0 to 100): 30
Plant response rating, Nightshade (Nightshade; [19]): 20
Plant response rating, Nightshade (Nightshade; Rate 250 g/ha, scale 0 to 100, 0 no effect, 100 complete control): 80
Plant response rating, Surinam grass [6, 19]: 30
Plant response rating, Surinam grass [6, 20]: 40
Plant response rating (0 to 100), Surinam grass [6, 21]: 100
Plant response rating, Surinam grass [6, 22]: 70
Plant response rating, Nutsedge [7, 19]: 0
Plant response rating, Nutsedge [7, 20]: 0
Plant response rating (0 to 100), Nutsedge [7, 21]: 10
Plant response rating, Nutsedge [7, 22]: 0
Plant response rating, Sunflower (Sunflower [8]): 40
Plant response rating, Pigweed [9, 19]: 10
Plant response rating, Pigweed [9, 20]: 0
Plant response rating (0 to 100), Pigweed [9, 21]: 100
Plant response rating, Pigweed [9, 22]: 40
Plant response rating, Morningglory [10, 19]: 10
Plant response rating, Morningglory [10, 20]: 10
Plant response rating (0 to 100), Morningglory [10, 21]: 30
Plant response rating, Morningglory [10, 22]: 30
Plant response rating, Velvetleaf [11, 19]: 10
Plant response rating, Velvetleaf [11, 20]: 0
Plant response rating (0 to 100), Velvetleaf [11, 21]: 20
Plant response rating, Velvetleaf [11, 22]: 10
Plant response rating, Corn (corn (Zea mays); [19]): 10
Plant response rating, Corn (corn (Zea mays); [20]): 0
Plant response rating (0 to 100), Corn (corn (Zea mays); [21]): 100
Plant response rating, Corn (corn (Zea mays); [22]): 70
Plant response rating, Soybean (soybean (Glycine max); [19]): 10
Plant response rating, Soybean (soybean (Glycine max); [20]): 0
Plant response rating (0 to 100), Soybean (soybean (Glycine max); [21]): 30
Plant response rating, Soybean (soybean (Glycine max); [22]): 10
Plant response rating, Lambsquarters [12, 19]: 100
Plant response rating, Lambsquarters [12, 20]: 100
Plant response rating (0 to 100), Lambsquarters [12, 21]: 100
Plant response rating, Lambsquarters [12, 22]: 100
Plant response rating, Crabgrass [13, 19]: 100
Plant response rating, Crabgrass [13, 20]: 100
Plant response rating (0 to 100), Crabgrass [13, 21]: 100
Plant response rating, Crabgrass [13, 22]: 100
Plant response rating, Foxtail, Giant [14, 19]: 100
Plant response rating, Foxtail, Giant [14, 20]: 0
Plant response rating (0 to 100), Foxtail, Giant [14, 21]: 100
Plant response rating, Foxtail, Giant [14, 22]: 100
Flatsedge plant response rating ([15]; Rate 250 g/ha): 100
Flatsedge plant response rating ([15]; Rate 500 g/ha): 100
Plant response rating, Flatsedge ([15]; Rate 62 g/ha): 90
Plant response rating, Flatsedge ([15]; Rate 125 g/ha): 90
Barnyardgrass plant response rating ([16]; Rate 250 g/ha): 100
Barnyardgrass plant response rating ([16]; Rate 500 g/ha): 100
Plant response rating, Barnyardgrass ([16]; Rate 62 g/ha): 30
Plant response rating, Barnyardgrass ([16]; Rate 125 g/ha): 100
Ducksalad plant response rating ([17]; Rate 250 g/ha): 60
Ducksalad plant response rating ([17]; Rate 500 g/ha): 60
Plant response rating, Ducksalad ([17]; Rate 62 g/ha): 0
Plant response rating, Ducksalad ([17]; Rate 125 g/ha): 10
Plant response rating (0 to 100), Sunflower (Sunflower [18]): 20
